Experimental data published in publication PMC8145430 (Chemical Science, 2019).

Tested on: A549 cells
Experiment: Confocal imaging of intracellular localization of fluorescein-labeled peptides
Assay type: cell-based, human
Conditions: 1 μM, 10 minutes, 37°C, confocal images

H-GLFDIIKKIAESF-K(FAM)K5SKTKC(Far)-OMe [FAM-Memrasin]
tethering on the PM: displays a clearer tethering on the PM
